In ChEMBL document CHEMBL1145370, “Alpha-methylation at benzylic fragment of N-aryl-N'-benzyl ureas provides TRPV1 antagonists with better pharmacokinetic properties and higher efficacy in inflammatory pain model” (Bioorg Med Chem Lett, 2007):

Tests used:
[1] = Half life in rat at 10 umol/kg, iv; type: ADME, organism-based; conditions: in vivo
[2] = Bioavailability in dog at 10 umol/kg, po; type: ADME, organism-based, Canis lupus familiaris; conditions: in vivo
[3] = Plasma clearance in rat at 10 umol/kg, iv; type: ADME, organism-based
[4] = Volume of distribution in rat at 10 umol/kg, iv; type: ADME, organism-based; conditions: in vivo, read-out: Vbeta
[5] = Volume of distribution in dog at 10 umol/kg, iv; type: ADME, organism-based, Canis lupus familiaris; conditions: in vivo, read-out: Vbeta
[6] = Plasma clearance in dog at 10 umol/kg, iv; type: ADME, organism-based, Canis lupus familiaris
[7] = Half life in dog at 10 umol/kg, iv; type: ADME, organism-based, Canis lupus familiaris; conditions: in vivo
[8] = target: Transient receptor potential cation channel subfamily V member 1 (Homo sapiens, UniProt Q8NER1); assay: Antagonist activity at human TRPV1 by calcium influx assay; type: functional
[9] = Bioavailability in rat at 10 umol/kg, po; type: ADME, organism-based; conditions: in vivo

Chain of Transient receptor potential cation channel subfamily V member 1 (Q8NER1 whole entry): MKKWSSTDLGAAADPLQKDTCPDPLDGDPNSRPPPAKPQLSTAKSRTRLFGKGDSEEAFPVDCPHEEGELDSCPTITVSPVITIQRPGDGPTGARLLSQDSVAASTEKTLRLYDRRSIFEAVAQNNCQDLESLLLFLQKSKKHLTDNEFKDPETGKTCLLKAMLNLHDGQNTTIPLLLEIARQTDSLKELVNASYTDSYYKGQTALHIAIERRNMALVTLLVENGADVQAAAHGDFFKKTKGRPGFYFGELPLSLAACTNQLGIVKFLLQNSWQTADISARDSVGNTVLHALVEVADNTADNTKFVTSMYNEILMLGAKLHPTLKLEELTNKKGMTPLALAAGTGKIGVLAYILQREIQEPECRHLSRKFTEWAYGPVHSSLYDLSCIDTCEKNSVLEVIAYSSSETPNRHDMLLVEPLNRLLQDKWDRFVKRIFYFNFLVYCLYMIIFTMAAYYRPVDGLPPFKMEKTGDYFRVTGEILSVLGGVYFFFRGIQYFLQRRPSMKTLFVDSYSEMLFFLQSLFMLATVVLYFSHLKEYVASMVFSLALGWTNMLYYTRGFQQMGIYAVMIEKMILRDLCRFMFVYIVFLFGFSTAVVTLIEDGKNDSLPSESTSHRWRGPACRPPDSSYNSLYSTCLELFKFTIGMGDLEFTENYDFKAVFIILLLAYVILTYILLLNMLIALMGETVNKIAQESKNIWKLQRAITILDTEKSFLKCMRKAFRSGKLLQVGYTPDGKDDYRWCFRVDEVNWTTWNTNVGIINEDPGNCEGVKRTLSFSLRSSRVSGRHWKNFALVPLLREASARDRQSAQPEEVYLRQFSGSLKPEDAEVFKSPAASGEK

| IC50 [8] | Structure (SMILES) | other results |
| --- | --- | --- |
|  | O=C(NCc1ccc(C(F)(F)F)cc1)Nc1cccc2cnccc12 | half-life [1]: 0.6 h; bioavailability [2]: 32%; clearance [3]: 10 mL/min/kg; Vd [4]: 0.6 L/kg; Vd [5]: 0.5 L/kg; clearance [6]: 6.67 mL/min/kg; half-life [7]: 1 h |
| 24 nM | CC(NC(=O)Nc1cccc2cnccc12)c1ccc(C(C)(C)C)cc1 (stereo not given) |  |
| 19 nM | CC(NC(=O)Nc1cccc2cnccc12)c1ccc(C(F)(F)F)c(F)c1 (stereo not given) |  |
| 147 nM | O=C(Nc1cccc2cnccc12)NC(c1ccccc1)c1ccc(C(F)(F)F)cc1 (stereo not given) |  |
| 171 nM | O=C(Nc1cccc2cnccc12)NC(c1ccccc1)c1ccc(N2CCCCC2)cc1 (stereo not given) |  |
| 46 nM | Cc1cc(C(C)(C)C)ccc1C(C)NC(=O)Nc1cccc2cnccc12 (stereo not given) |  |
| 20 nM | CCc1cc(C(C)(C)C)ccc1C(C)NC(=O)Nc1cccc2cnccc12 (stereo not given) |  |
| 17 nM | CC(NC(=O)Nc1cccc2cnccc12)c1ccc(C(C)(C)C)cc1C(C)(C)C (stereo not given) |  |
| 2580 nM | CCC(NC(=O)Nc1cccc2cnccc12)c1ccccc1 (stereo not given) |  |
| 15900 nM | N#CCC(NC(=O)Nc1cccc2cnccc12)c1ccccc1 (stereo not given) |  |
| 149 nM | O=C(Nc1cccc2cnccc12)NC(c1ccc(C(F)(F)F)cc1)C1CC1 (stereo not given) |  |
| 287 nM | O=C(Nc1cccc2cnccc12)NC(c1ccc(C(F)(F)F)cc1)C1CCCCC1 (stereo not given) |  |
| 143 nM | CC(C)(NC(=O)Nc1cccc2cnccc12)c1ccc(Cl)cc1 |  |
| 94 nM | CC(C)(NC(=O)Nc1cccc2cnccc12)c1ccc(C(F)(F)F)cc1 |  |
| 41 nM | C[C@@H](NC(=O)Nc1cccc2[nH]ncc12)c1ccc(C(F)(F)F)cc1 | half-life [1]: 2.1 h; Vd [4]: 2.9 L/kg; bioavailability [9]: 53% |
| 749 nM | Cc1ccc([C@H](C)NC(=O)Nc2cccc3[nH]ncc23)cc1 |  |
| 3750 nM | C[C@H](NC(=O)Nc1cccc2[nH]ncc12)c1cccc2ccccc12 |  |
| 22 nM | CC(NC(=O)Nc1cccc2cnccc12)c1ccc(C(F)(F)F)cc1 (stereo not given) | half-life [1]: 1.1 h; bioavailability [2]: 98%; clearance [3]: 11.7 mL/min/kg; Vd [4]: 1.1 L/kg; Vd [5]: 1.1 L/kg; clearance [6]: 8.33 mL/min/kg; bioavailability [9]: 47%; half-life [7]: 1.6 h |
| 31000 nM | CN(C)CC(NC(=O)Nc1cccc2cnccc12)c1ccccc1 (stereo not given) |  |
| 476 nM | O=C(Nc1cccc2cnccc12)NC(c1ccc(C(F)(F)F)cc1)C1CCCC1 (stereo not given) |  |
| 248 nM | C[C@H](NC(=O)Nc1cccc2[nH]ncc12)c1ccc(C(F)(F)F)cc1 |  |
| 123 nM | C[C@@H](NC(=O)Nc1cccc2[nH]ncc12)c1cccc2ccccc12 |  |
| 73 nM | Cc1ccc([C@@H](C)NC(=O)Nc2cccc3[nH]ncc23)cc1 |  |
| 125 nM | CC(C)(C)c1ccc(C(NC(=O)Nc2cccc3cnccc23)c2ccccc2)cc1 (stereo not given) |  |
| 600 nM | O=C(Nc1cccc2cnccc12)NC(c1ccccc1)c1ccccc1 |  |
| 109 nM | CCC(NC(=O)Nc1cccc2cnccc12)c1ccc(C(F)(F)F)c(F)c1 (stereo not given) |  |
| 26 nM | CC(NC(=O)Nc1cccc2cnccc12)c1ccc(Br)cc1 (stereo not given) |  |
| 47 nM | CC(NC(=O)Nc1cccc2[nH]ncc12)c1ccc(C(F)(F)F)cc1 (racemic) |  |
